# US9102648B1, “Bioavailable diacylhydrazine ligands for modulating the expression of exogenous genes via an ecdysone receptor complex” (Intrexon Corporation, priority 2003, dated 2015)
# Where two headings read alike, the source gives them in different places.
# Assays:
# [1] = Partition coefficient Log (D), 1-octanol / pH 7.4 buffer; type: physicochemical; conditions: water-saturated 1-octanol / pH 7.4 buffer, room temperature
# Method: The partition coefficient, Log (D), between water-saturated 1-octanol and pH 7.4 buffer was determined for the test compounds. The buffer was prepared as described in section 2. A 12 μl aliquot of a 10 mM stock solution in DMSO was introduced to a vial containing 0.60 mL of octanol and 0.60 mL of buffer at room temperature. Testosterone was also added to a final concentration of 100 μM as an internal control. The solution was vortexed for 60 minutes and centrifuged at 10,000 rpm for 10 minutes. The organic and aqueous layers were removed. Serial dilutions of the organic layer were made with 50% methanol except for the initial dilution, which was made in 100% methanol. Serial dilutions of the aqueous layer were made in the pH 7.4 buffer. The diluted samples were then assayed by LC/MS for the compound as well as for testosterone. The Log of the ratio of peak area responses was calculated to obtain the Log (D). Typical Log D values for testosterone are from 3.0-3.3.
# Caco-2 monolayers = experiment: Bi-directional permeability, CACO-2; type: in vitro ADME; conditions: for Papp B-A / Papp A-B Ratio: Caco-2 efflux ratio; for Absorption Potential: classification from Papp(A-to-B)
# Method: (§1) Caco-2 monolayers were grown to confluence on collagen-coated, microporous, polycarbonate membranes in 12-well Costar Transwell plates. Details of the plates and their certification are shown below. The permeability assay buffer was Hank's Balanced Salt Solution containing 10 mM HEPES and 15 mM glucose at a pH of 7.0±0.2. The dosing solution concentration was 10 μM in assay buffer. At each time point, 1 and 2 hours, a 200-μL aliquot was taken from the receiver chamber and replaced with fresh assay buffer. Cells were dosed on the apical side (A-to-B) or basolateral side (B-to-A) and incubated at 37° C. with 5% CO2 and 90% relative humidity. Each determination was performed in duplicate. The important experimental parameters are outlined below. Permeability through a cell-free (blank) membrane was studied to determine non-specific binding and free diffusion of the compound through the device. Lucifer yellow flux was also measured for each monolayer after being subjected to the test compounds to ensure no damage was inflicted to the cell monolayers during the flux period.
# (§2) All samples were assayed by LC/MS using electrospray ionization. Typical LC/MS conditions are as follows:
# (§3) dCr/dt is the cumulative concentration in the receiver compartment versus time in M s^−1.
# (§4) Vr is the volume of the receiver compartment in cm^3.
# (§5) Vd is the volume of the donor compartment in cm^3.
# (§6) A is the area of the cell monolayer (1.13 cm^2 for 12-well Transwell).
# (§7) C0 is the concentration of the dosing solution in M.
# (§8) Cr^final is the cumulative receiver concentration in M at the end of the incubation period.
# (§9) Cd^final is the concentration of the donor in M at the end of the incubation period.
# [2] = Aqueous equilibrium solubility in pH 7.4 buffer; conditions: for Solubility pH 7.4: pH 7.4 aqueous buffer, room temperature, equilibrium; for solubility: pH 7.4 aqueous phosphate buffer, pH 7.4, aqueous buffer, thermodynamic from solid
# Method: Equilibrium solubility was measured in pH 7.4 aqueous buffer. The buffer was prepared by adjusting the pH of a 0.07 M solution of NaH2PO4 to pH 7.4 with 10 N NaOH. […] At least 1 mg of powder was combined with 1 mL of buffer to make >1 mg/mL mixture. These samples were shaken for ≧2 hours and left to stand overnight at room temperature. The samples were then filtered through a 0.45-μm Nylon syringe filter that was first saturated with the sample. The filtrate was sampled twice, consecutively. The filtrate was assayed by HPLC against standards prepared in methanol.
# [3] = Bi-directional permeability, CACO-2; type: in vitro ADME; conditions: for efflux ratio at 2 h, 10 μM: Caco-2, pH 7
# Method: as §1, §2, §3, §4, §5, §6, §7, §8, §9
# [4] = Caco-2, pH 7, Percent Recovery Blank
# [5] = Caco-2, pH 7, cell-free (blank) membrane, 10 μM, read-out: Papp Blank
# [6] = human, Caco-2, pH 7, Caco-2, 10 μM, replicate 2, read-out: Papp, B-to-A Rep. 2
# [7] = human, Caco-2, pH 7, Papp, A-to-B Rep. 1
# [8] = human, Caco-2, pH 7, Papp, B-to-A Avg
# [9] = human, Caco-2, pH 7, Papp, B-to-A Rep. 1
# [10] = human, Caco-2, pH 7, Percent Recovery A-to-B
# [11] = human, Caco-2, pH 7, Percent Recovery B-to-A
# [12] = classification from Papp(B-to-A) and ratio
# [13] = human, Caco-2, pH 7, Papp, A-to-B Avg
# [14] = human, Caco-2, pH 7, Papp, A-to-B Rep. 2
# [15] = human, Caco-2, pH 7, Papp, B-to-A Rep. 2
SMILES,Log(D) Octanol/pH 7.4 [1],Papp Blank (Caco-2 monolayers; Caco-2),"Papp, A-to-B Avg (Caco-2 monolayers; Caco-2)","Papp, A-to-B Rep. 1 (Caco-2 monolayers; Caco-2)","Papp, A-to-B Rep. 2 (Caco-2 monolayers; Caco-2)","Papp, B-to-A Avg (Caco-2 monolayers; Caco-2)","Papp, B-to-A Rep. 1 (Caco-2 monolayers; Caco-2)","Papp, B-to-A Rep. 2 (Caco-2 monolayers; Caco-2)",Significant Efflux (Caco-2 monolayers; Caco-2),Papp B-A / Papp A-B Ratio (Caco-2 monolayers),Solubility pH 7.4 [2],"recovery at 2 h, 10 μM [3, 4] [%]","efflux ratio at 2 h, 10 μM ([3]; human)","Papp A→B at 2 h, 10 µM [3, 7] [×10⁻⁶ cm/s]","Papp B→A at 2 h, 10 µM [3, 8] [×10⁻⁶ cm/s]","Papp B→A at 2 h, 10 µM [3, 9] [×10⁻⁶ cm/s]","recovery at 2 h, 10 μM [3, 10] [%]","recovery at 2 h, 10 μM [3, 11] [%]",solubility [2] [µg/mL],"Papp A→B at 2 h, 10 µM [3, 13] [×10⁻⁶ cm/s]",other results
CCCC(N(NC(=O)c1cccc(OC)c1C)C(=O)c1cc(C)cc(C)c1)C(C)(C)C (stereo not shown) [RG-115823],3.3,24.2 10^−6 cm/s,17.6 10^−6 cm/s,17.4 10^−6 cm/s,17.8 10^−6 cm/s,17.1 10^−6 cm/s,18.8 10^−6 cm/s,15.4 10^−6 cm/s,No,1.0,0.0003 mg/mL,–,–,–,–,–,–,–,–,–,–
COc1cccc(C(=O)NN(C(=O)c2cc(C)cc(C)c2)C(C)(C)C)c1C [RG-102398],3.5,–,–,–,–,–,–,–,–,–,–,94,1,27,27.1,25.9,85,90,≤ 0.2,–,"Papp at 2 h, 10 µM [3, 5]: 34.7 ×10⁻⁶ cm/s; Papp A→B at 2 h, 10 µM ([3]; human, Caco-2, pH 7, Caco-2, 10 μM, average of 2 replicates, read-out: Papp, A-to-B Avg): 26.9 ×10⁻⁶ cm/s; Papp A→B at 2 h, 10 µM ([3]; human, Caco-2, pH 7, Caco-2, 10 μM, replicate 2, read-out: Papp, A-to-B Rep. 2): 26.8 ×10⁻⁶ cm/s; Papp B→A at 2 h, 10 µM [3, 6]: 28.2 ×10⁻⁶ cm/s; Absorption Potential (Caco-2 monolayers): High (Papp(A-to-B) ≧ 1.0 × 10^−6 cm/s High); Significant Efflux (Caco-2 monolayers; [12]): No"
"COc1ccc(C(=O)N(NC(=O)c2ccc3c(c2C)OCCO3)C(C)(C)C)c(OC)n1 [RG-115517, 2,6-dimethoxy-nicotinic acid N-tert-butyl-N′-(5-methyl-2,3-dihydro-benzo[1,4]dioxine-6-carbonyl)-hydrazide]",2.9,–,–,–,–,–,–,–,No,–,–,96,0.9,28.4,26.4,25.2,91,95,14,28.8,"Papp at 2 h, 10 µM ([3]; Caco-2, pH 7, Papp Blank): 31.6 ×10⁻⁶ cm/s; Papp A→B at 2 h, 10 µM [3, 14]: 29.3 ×10⁻⁶ cm/s; Papp B→A at 2 h, 10 µM [3, 15]: 27.6 ×10⁻⁶ cm/s"
CCc1ccc(C(=O)NN(C(=O)c2cc(C)cc(C)c2)C(C)(C)C)cc1 [RG-102125],3.2,–,–,–,–,–,–,–,–,–,–,62,–,–,–,–,84,63,0.6,26,"Papp at 2 h, 10 µM [3, 5]: 21.9 ×10⁻⁶ cm/s; Papp B→A at 2 h, 10 µM ([3]; human, Caco-2, pH 7, Caco-2, 10 μM, average of 2 replicates, read-out: Papp, B-to-A Avg): 20.2 ×10⁻⁶ cm/s; Papp A→B at 2 h, 10 µM ([3]; human, Caco-2, pH 7, Caco-2, 10 μM, replicate 1, read-out: Papp, A-to-B Rep. 1): 25.7 ×10⁻⁶ cm/s; Papp B→A at 2 h, 10 µM ([3]; human, Caco-2, pH 7, Caco-2, 10 μM, replicate 1, read-out: Papp, B-to-A Rep. 1): 20.7 ×10⁻⁶ cm/s; Papp B→A at 2 h, 10 µM [3, 6]: 19.7 ×10⁻⁶ cm/s; Papp A→B at 2 h, 10 µM [3, 14]: 26.3 ×10⁻⁶ cm/s; Absorption Potential (Caco-2 monolayers): High (Papp(A-to-B) ≧ 1.0 × 10^−6 cm/s High); Significant Efflux (Caco-2 monolayers; [12]): No"
CC(=O)c1ccc(C(=O)NN(C(=O)c2cc(C(=O)O)cc(C(=O)O)c2)C(C)(C)C)cc1 [RG-100150],−2.1,36.9 10^−6 cm/s,0.18 10^−6 cm/s,0.19 10^−6 cm/s,0.18 10^−6 cm/s,0.33 10^−6 cm/s,0.33 10^−6 cm/s,0.34 10^−6 cm/s,No,–,≧1.0 mg/mL,–,–,–,–,–,–,–,–,–,–
COc1cnccc1C(=O)N(NC(=O)c1cccc(O)c1C)C(C)(C)C [RG-115595],2.1,33.2 10^−6 cm/s,19.2 10^−6 cm/s,19.6 10^−6 cm/s,18.9 10^−6 cm/s,30.7 10^−6 cm/s,29.8 10^−6 cm/s,31.7 10^−6 cm/s,No,1.6,0.026 mg/mL,–,–,–,–,–,–,–,–,–,–
CCc1c(C(=O)NN(C(=O)c2ccc(F)c(C(F)(F)F)c2)C(C)(C)C)ccc2c1OCCO2 [RG-115280],3.9,1.88 10^−6 cm/s,1.27 10^−6 cm/s,1.24 10^−6 cm/s,1.30 10^−6 cm/s,1.49 10^−6 cm/s,1.50 10^−6 cm/s,1.48 10^−6 cm/s,No,1.2,0.0012 mg/mL,–,–,–,–,–,–,–,–,–,–
"CCc1ccc(C(=O)NN(C(=O)c2cc(C)cc(C)c2)C(C)(C)C)c(F)c1 [RG-101523, 3,5-Dimethyl-benzoic acid N-tert-butyl-N′-(4-ethyl-2-fluoro-benzoyl)-hydrazide]",2.9,–,–,–,–,–,–,–,No,–,–,95,1,24.2,24.5,23.6,95,88,1,25.4,"Papp at 2 h, 10 µM ([3]; Caco-2, pH 7, Papp Blank): 29.4 ×10⁻⁶ cm/s; Papp A→B at 2 h, 10 µM [3, 14]: 26.6 ×10⁻⁶ cm/s; Papp B→A at 2 h, 10 µM [3, 15]: 25.4 ×10⁻⁶ cm/s"
